Tests used:
Test in all cases: KINOMEscan competition binding
Details in all cases: compound 10.0 µM
CSNK2A2 (human) = CSNK2A2 (human) (UniProt P19784)
CHEK2 (human) = CHEK2 (human) (UniProt O96017)
LCK (human) = LCK (human) (UniProt P06239)
STK10 (human) = STK10 (human) (UniProt O94804)
FYN (human) = FYN (human) (UniProt P06241)
CAMK2A (human) = CAMK2A (human) (UniProt Q9UQM7)
STK17B (human) = STK17B (human) (UniProt O94768)
PIP4K2B (human) = PIP4K2B (human) (UniProt P78356)
ABL2 (human) = ABL2 (human) (UniProt P42684)
CSNK1E (human) = CSNK1E (human) (UniProt P49674)
EPHA3 (human) = EPHA3 (human) (UniProt P29320)
Chain of EPHA3 (human) (P29320 whole entry, looked up): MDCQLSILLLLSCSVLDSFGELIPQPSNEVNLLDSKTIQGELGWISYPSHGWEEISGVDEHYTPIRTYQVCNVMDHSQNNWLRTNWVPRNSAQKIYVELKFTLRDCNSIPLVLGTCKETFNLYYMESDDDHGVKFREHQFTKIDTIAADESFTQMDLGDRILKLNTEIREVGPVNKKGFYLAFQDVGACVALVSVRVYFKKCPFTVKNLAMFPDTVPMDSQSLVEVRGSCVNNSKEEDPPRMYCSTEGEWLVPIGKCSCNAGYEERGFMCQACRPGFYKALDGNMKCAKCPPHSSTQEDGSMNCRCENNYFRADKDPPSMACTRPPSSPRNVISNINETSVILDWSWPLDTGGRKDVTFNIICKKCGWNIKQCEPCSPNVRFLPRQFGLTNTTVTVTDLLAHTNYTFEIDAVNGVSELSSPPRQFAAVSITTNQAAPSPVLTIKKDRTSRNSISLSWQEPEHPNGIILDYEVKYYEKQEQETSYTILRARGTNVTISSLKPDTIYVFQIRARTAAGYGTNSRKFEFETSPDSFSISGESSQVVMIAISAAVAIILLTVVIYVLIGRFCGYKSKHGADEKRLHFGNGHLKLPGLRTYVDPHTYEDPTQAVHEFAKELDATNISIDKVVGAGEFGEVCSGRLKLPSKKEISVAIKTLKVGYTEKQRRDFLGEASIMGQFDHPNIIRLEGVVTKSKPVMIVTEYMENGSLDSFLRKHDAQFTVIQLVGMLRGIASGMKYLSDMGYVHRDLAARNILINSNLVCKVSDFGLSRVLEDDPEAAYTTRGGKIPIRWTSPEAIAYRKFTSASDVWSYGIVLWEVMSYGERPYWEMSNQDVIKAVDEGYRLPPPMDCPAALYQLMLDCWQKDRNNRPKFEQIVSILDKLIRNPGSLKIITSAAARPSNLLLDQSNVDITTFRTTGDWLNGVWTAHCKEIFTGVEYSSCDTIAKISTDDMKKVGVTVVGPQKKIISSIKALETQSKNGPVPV

WEE2 (human) = WEE2 (human) (UniProt P0C1S8)
PRKG1 (human) = PRKG1 (human) (UniProt Q13976)
MAP3K12 (human) = MAP3K12 (human) (UniProt Q12852)
BMX (human) = BMX (human) (UniProt P51813)
[1] = test system: EGFR (human), P00533 [A750P; 747-749 del]
[2] = biological target: JAK3 JH1 catalytic (human) (UniProt P52333)
[3] = test system: FGFR3 (human), P22607 [G697C]
CAMK1G (human) = CAMK1G (human) (UniProt Q96NX5)
PAK7 (human) = PAK7 (human) (UniProt Q9P286)
Chain of PAK7 (human) (Q9P286 whole entry, looked up): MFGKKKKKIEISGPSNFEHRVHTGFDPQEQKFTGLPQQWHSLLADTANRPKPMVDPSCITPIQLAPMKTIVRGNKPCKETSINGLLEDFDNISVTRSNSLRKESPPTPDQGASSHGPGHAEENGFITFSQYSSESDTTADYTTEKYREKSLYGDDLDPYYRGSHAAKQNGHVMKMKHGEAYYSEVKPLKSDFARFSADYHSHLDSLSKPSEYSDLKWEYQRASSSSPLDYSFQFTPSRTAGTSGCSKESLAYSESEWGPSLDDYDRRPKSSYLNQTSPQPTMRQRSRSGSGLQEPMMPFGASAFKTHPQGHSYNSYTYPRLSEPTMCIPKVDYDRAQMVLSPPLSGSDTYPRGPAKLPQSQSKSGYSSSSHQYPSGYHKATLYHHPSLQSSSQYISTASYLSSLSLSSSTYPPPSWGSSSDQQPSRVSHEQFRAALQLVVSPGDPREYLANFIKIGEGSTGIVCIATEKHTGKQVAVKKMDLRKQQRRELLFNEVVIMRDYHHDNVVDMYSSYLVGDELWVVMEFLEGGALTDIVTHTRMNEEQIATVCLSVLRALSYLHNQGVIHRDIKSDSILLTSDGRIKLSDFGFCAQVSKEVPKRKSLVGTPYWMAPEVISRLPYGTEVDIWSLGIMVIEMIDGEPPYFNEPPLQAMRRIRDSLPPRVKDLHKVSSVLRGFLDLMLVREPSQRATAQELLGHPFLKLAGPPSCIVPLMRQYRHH

STK17A (human) = STK17A (human) (UniProt Q9UEE5)
PDPK1 (human) = PDPK1 (human) (UniProt O15530)
[4] = test system: KIT (human), P10721 [V559D/T670I]
Chain of KIT (human), P10721 [V559D/T670I] (P10721 whole entry V559D/T670I, looked up): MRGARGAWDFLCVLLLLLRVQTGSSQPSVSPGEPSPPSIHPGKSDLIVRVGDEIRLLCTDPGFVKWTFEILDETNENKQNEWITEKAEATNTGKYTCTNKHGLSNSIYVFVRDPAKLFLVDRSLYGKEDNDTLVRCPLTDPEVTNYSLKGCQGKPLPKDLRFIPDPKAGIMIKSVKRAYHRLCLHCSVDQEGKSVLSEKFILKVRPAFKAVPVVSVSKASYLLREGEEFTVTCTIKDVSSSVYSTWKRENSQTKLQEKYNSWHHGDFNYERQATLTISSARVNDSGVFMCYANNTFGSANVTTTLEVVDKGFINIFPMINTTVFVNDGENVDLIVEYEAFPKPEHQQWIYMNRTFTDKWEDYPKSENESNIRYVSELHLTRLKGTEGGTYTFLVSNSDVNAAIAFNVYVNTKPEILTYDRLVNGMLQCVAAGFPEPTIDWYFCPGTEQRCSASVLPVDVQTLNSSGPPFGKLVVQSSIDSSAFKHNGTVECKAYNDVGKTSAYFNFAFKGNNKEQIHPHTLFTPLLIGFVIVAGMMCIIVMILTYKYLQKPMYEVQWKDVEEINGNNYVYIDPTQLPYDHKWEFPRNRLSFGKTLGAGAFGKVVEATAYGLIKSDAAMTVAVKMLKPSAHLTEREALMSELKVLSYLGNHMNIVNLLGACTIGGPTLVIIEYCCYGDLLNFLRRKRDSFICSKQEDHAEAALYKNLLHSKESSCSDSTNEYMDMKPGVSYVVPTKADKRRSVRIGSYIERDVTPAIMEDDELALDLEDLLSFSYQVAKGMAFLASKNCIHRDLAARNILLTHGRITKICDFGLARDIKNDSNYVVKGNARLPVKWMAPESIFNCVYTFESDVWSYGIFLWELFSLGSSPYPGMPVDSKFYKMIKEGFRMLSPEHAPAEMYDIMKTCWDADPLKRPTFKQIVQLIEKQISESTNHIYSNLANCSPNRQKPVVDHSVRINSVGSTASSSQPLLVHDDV

PIK3CD (human) = PIK3CD (human) (UniProt O00329)
CAMKK1 (human) = CAMKK1 (human) (UniProt Q8N5S9)
Chain of CAMKK1 (human) (Q8N5S9 whole entry, looked up): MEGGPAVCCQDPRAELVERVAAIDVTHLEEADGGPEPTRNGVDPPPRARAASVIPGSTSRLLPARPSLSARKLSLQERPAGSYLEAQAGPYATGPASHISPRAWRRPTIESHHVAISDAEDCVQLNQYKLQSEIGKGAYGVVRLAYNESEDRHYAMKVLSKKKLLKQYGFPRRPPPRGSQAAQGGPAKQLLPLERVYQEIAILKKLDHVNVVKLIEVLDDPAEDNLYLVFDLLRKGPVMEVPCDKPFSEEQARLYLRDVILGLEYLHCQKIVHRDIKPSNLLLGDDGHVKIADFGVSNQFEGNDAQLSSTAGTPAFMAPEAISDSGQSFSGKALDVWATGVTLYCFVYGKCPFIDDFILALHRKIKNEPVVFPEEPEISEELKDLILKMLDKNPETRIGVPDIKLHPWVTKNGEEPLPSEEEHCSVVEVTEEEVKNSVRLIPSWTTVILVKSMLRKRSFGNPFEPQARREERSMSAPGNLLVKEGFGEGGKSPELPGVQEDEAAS

MAP2K2 (human) = MAP2K2 (human) (UniProt P36507)
LIMK2 (human) = LIMK2 (human) (UniProt P53671)
CAMK4 (human) = CAMK4 (human) (UniProt Q16566)
RIPK4 (human) = RIPK4 (human) (UniProt P57078)
STK3 (human) = STK3 (human) (UniProt Q13188)
AKT2 (human) = AKT2 (human) (UniProt P31751)
[5] = test system: RET (human), P07949 [V804M]
SIK1 (human) = SIK1 (human) (UniProt P57059)
CDK3 (human) = CDK3 (human) (UniProt Q00526)
EPHA6 (human) = EPHA6 (human) (UniProt Q9UF33)
MYO3B (human) = MYO3B (human) (UniProt Q8WXR4)
FGFR2 (human) = FGFR2 (human) (UniProt P21802)
Chain of FGFR2 (human) (P21802 whole entry, looked up): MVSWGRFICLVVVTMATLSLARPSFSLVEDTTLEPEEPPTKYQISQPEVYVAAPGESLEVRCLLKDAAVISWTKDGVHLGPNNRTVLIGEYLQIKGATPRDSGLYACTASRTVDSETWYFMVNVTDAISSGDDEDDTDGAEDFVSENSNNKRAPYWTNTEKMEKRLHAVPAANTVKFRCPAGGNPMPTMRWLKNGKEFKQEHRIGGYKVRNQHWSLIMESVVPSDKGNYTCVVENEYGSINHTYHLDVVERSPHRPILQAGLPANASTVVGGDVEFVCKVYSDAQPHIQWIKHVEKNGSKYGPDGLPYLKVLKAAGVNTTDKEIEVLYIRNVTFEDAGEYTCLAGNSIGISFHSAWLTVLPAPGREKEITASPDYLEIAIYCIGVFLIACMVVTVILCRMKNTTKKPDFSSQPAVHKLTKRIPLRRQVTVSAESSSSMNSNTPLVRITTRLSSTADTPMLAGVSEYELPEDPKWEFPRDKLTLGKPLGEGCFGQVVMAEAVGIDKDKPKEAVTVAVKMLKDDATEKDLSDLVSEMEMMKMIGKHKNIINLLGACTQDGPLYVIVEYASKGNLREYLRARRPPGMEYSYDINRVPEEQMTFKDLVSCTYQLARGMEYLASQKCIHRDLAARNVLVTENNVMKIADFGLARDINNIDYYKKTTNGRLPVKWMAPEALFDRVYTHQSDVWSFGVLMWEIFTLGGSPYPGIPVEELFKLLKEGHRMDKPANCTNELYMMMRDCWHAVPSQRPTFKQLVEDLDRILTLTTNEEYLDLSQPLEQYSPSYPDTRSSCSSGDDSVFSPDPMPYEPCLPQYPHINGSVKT

MAPK15 (human) = MAPK15 (human) (UniProt Q8TD08)
NTRK1 (human) = NTRK1 (human) (UniProt P04629)
FGFR3 (human) = FGFR3 (human) (UniProt P22607)
MAPK7 (human) = MAPK7 (human) (UniProt Q13164)
DDR1 (human) = DDR1 (human) (UniProt Q08345)

Chain of FYN (human) (P06241 whole entry, looked up): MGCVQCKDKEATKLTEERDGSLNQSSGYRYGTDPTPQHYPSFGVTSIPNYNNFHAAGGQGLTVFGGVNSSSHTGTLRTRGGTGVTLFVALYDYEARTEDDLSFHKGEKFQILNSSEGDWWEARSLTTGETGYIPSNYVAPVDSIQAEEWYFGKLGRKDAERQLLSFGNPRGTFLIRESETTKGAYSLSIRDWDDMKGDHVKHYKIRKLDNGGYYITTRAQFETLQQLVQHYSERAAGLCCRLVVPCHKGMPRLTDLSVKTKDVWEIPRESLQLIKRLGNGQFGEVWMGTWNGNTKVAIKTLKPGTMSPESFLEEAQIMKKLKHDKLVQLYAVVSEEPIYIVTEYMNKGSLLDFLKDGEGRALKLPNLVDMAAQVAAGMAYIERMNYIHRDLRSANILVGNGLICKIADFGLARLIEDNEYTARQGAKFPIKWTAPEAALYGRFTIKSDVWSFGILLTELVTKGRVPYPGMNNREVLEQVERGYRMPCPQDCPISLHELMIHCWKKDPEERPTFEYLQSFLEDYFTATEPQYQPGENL
Chain of PIP4K2B (human) (P78356 whole entry, looked up): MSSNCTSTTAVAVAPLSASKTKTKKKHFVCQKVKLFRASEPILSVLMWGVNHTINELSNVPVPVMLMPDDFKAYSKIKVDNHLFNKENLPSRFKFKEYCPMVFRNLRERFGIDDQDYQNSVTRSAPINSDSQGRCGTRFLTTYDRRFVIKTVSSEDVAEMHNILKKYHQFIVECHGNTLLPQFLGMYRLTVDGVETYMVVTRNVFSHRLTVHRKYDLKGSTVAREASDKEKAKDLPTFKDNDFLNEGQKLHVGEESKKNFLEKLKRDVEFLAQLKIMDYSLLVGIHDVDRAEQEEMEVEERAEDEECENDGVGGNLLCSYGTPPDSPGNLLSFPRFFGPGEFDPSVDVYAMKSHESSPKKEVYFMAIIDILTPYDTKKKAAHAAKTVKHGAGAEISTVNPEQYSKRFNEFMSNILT

Q: With `CCN1CCN(Cc2ccc(NC(=O)c3ccc(C)c(/C=C/c4cnc(Nc5cc(N6CCNCC6)nc(C)n5)cn4)c3)cc2C(F)(F)F)CC1` as the molecule, how does the kinase still bound, per cent of control (CSNK2A2 (human)) read?
A: 72%

Q: What about the kinase still bound, per cent of control (CHEK2 (human)) of the same molecule?
A: 83%

Q: What about the kinase still bound, per cent of control (LCK (human)) of the same molecule?
A: 0.45%

Q: What about the kinase still bound, per cent of control (STK10 (human)) of the same molecule?
A: 0%

Q: What about the kinase still bound, per cent of control (FYN (human)) of the same molecule?
A: 4.6%

Q: And the kinase still bound, per cent of control (CAMK2A (human))?
A: 100%

Q: And the kinase still bound, per cent of control (STK17B (human))?
A: 2%

Q: And the kinase still bound, per cent of control (PIP4K2B (human))?
A: 83%

Q: And the kinase still bound, per cent of control (ABL2 (human))?
A: 0.7%

Q: What about the kinase still bound, per cent of control (CSNK1E (human)) of the same molecule?
A: 100%

Q: What about the kinase still bound, per cent of control (EPHA3 (human)) of the same molecule?
A: 4.4%

Q: And the kinase still bound, per cent of control (WEE2 (human))?
A: 83%

Q: And the kinase still bound, per cent of control (PRKG1 (human))?
A: 100%

Q: And the kinase still bound, per cent of control (MAP3K12 (human))?
A: 18%

Q: And the kinase still bound, per cent of control (BMX (human))?
A: 12%

Q: What about the kinase still bound, per cent of control [1] of the same molecule?
A: 2.9%

Q: And the kinase still bound, per cent of control [2]?
A: 3.2%

Q: And the kinase still bound, per cent of control [3]?
A: 23%

Q: And the kinase still bound, per cent of control (CAMK1G (human))?
A: 99%

Q: And the kinase still bound, per cent of control (PAK7 (human))?
A: 100%

Q: And the kinase still bound, per cent of control (STK17A (human))?
A: 11%

Q: What about the kinase still bound, per cent of control (PDPK1 (human)) of the same molecule?
A: 100%

Q: And the kinase still bound, per cent of control [4]?
A: 14%

Q: And the kinase still bound, per cent of control (PIK3CD (human))?
A: 50%

Q: What about the kinase still bound, per cent of control (CAMKK1 (human)) of the same molecule?
A: 98%

Q: And the kinase still bound, per cent of control (MAP2K2 (human))?
A: 11%

Q: And the kinase still bound, per cent of control (LIMK2 (human))?
A: 9.6%

Q: And the kinase still bound, per cent of control (CAMK4 (human))?
A: 100%

Q: And the kinase still bound, per cent of control (RIPK4 (human))?
A: 17%

Q: What about the kinase still bound, per cent of control (STK3 (human)) of the same molecule?
A: 100%

Q: What about the kinase still bound, per cent of control (AKT2 (human)) of the same molecule?
A: 46%

Q: And the kinase still bound, per cent of control [5]?
A: 0.15%

Q: What about the kinase still bound, per cent of control (SIK1 (human)) of the same molecule?
A: 3.6%

Q: And the kinase still bound, per cent of control (CDK3 (human))?
A: 100%

Q: And the kinase still bound, per cent of control (EPHA6 (human))?
A: 51%

Q: And the kinase still bound, per cent of control (MYO3B (human))?
A: 67%

Q: And the kinase still bound, per cent of control (FGFR2 (human))?
A: 10%

Q: And the kinase still bound, per cent of control (MAPK15 (human))?
A: 100%

Q: And the kinase still bound, per cent of control (NTRK1 (human))?
A: 0.45%

Q: And the kinase still bound, per cent of control (FGFR3 (human))?
A: 12%

Q: And the kinase still bound, per cent of control (MAPK7 (human))?
A: 100%

Q: And the kinase still bound, per cent of control (DDR1 (human))?
A: 0%
